From patent US20220087983A1, “ACTIVATING PYRUVATE KINASE R” (FORMA Therapeutics, Inc., priority 2020, published 2022)
Values after ≈ are worked out from the molar mass of the structure shown. Values joined by “and” are separate entries in the source; they are usually repeats but may differ in a detail not shown here. Equal entries are not always repeated.

Legend:
[1] = Solubility in water or buffered solutions; type: physicochemical; details: aqueous buffer, pH about 1.07 to about 8.69
[2] = Phase 1: safety, adverse events in healthy volunteers; type: in vivo, human
Procedure: (§1) In this study, SAD/MAD cohorts are randomized (3 to 1) to receive Compound 1 or placebo (P). Compound 1 was evaluated first in 4 healthy SAD cohorts and 4 healthy MAD (14-day dosing period) cohorts. Based on the safety, and PK/PD profile from HS, Compound 1 is then evaluated in 1 SCD SAD cohort and 2 SCD MAD cohorts. Specifically, based on the safety and pharmacokinetic/pharmacodynamics (PK/PD) profile in healthy volunteer studies, Compound 1 is evaluated in patients (pts) with SCD, first in a single dose (SD or SAD) cohort and then in multiple-dose (MD or MAD) cohorts (14-day and 12-week). Safety assessments include AEs, vital signs, ECGs and laboratory parameters. PK/PD blood sampling was performed on Day 1 (SAD/MAD) and Day 14 (MAD) and up to 72 h after the last dose and at the end-of-study visit. PD parameters included 2,3-DPG, ATP, and p50 in all cohorts with additional PD studies (including oxygen scan) performed only in the SCD cohorts. PD parameters included 2,3-DPG, ATP, p50, RBC deformability with controlled deoxygenation and reoxygenation (Lorrca® oxygen scan) and varying osmolality (Lorrca® osmoscan)). To maintain study blind, pt identifiers were removed when needed.
Primary Outcome Measures: • 1. Incidence, frequency, and severity of adverse events (AEs) per CTCAE v5.0 of a single ascending dose and multiple ascending doses of Compound 1 in adult healthy volunteers and SCD patients. Incidence of abnormal laboratory test results (clinical chemistry, endocrine hematology, urinalysis). Change from baseline in vital signs (blood pressure, respiratory rate, heart rate, and oral temperature). […] Area under the plasma concentration-time curve from time zero until last quantifiable time point (AUC0-last) • [Time Frame: Up to 3 weeks of testing] • 6. […]
Among the TEAEs reported in Table 13, TEAEs of grade 2 or less related to Compound 1 in the SAD cohorts included headache (n=1) and transient ventricular tachycardia (n=1), each in a different subject. […] The subject's back-up sample was re-assessed independently, and no lipase elevation was detected.

2,3-DPG blood levels = assay: Phase 1: blood 2,3-DPG levels in healthy volunteers (LC-MS/MS); type: in vivo, human; details: for Mean maximum percent change from baseline in 2,3-DPG: all doses and timepoints
Procedure: as §1
In the SAD cohorts, the subjects' blood 2,3-DPG levels were measured periodically after dosing by a qualified LC-MS/MS method for the quantitation of 2,3-DPG in blood. Decreased 2,3-DPG blood levels were observed 6 hours following a single dose of Compound 1 at all dose levels (earlier timepoints were not collected). Maximum decreases in 2,3-DPG levels generally occurred ˜24 hours after the first dose with the reduction sustained ˜48-72 hr postdose. Table 15 reports the median percentage change in 2,3-DPG blood levels, relative to baseline, measured over time in healthy volunteers after a single dose of Compound 1 (200 mg, 400 mg, 700 mg, or 1000 mg) or placebo. Table 16 reports the mean percentage change in 2,3-DPG blood levels, relative to baseline, measured over time in healthy volunteers after a single dose of Compound 1 (200 mg, 400 mg, 700 mg, or 1000 mg). Accordingly, the median and mean reduction in the concentration of 2,3-DPG, relative to baseline, was at least about 30% at all dose levels tested 24 hours after administration of the single dose.
In the MAD cohorts, the subjects' blood 2,3-DPG levels were measured periodically after dosing by a qualified LC-MS/MS method for the quantitation of 2,3-DPG in blood. The maximum decrease in 2,3-DPG on Day 14 was 55% from baseline (median). […] Table 18A reports the median percentage change in 2,3-DPG blood levels, relative to baseline, measured over time after the first dose on days 1 and 14 in healthy volunteers who received daily doses of Compound 1 (100 mg BID, 200 mg BID, or 300 mg BID) or placebo for 14 days. Table 18B reports the mean percentage change in 2,3-DPG blood levels, relative to baseline, measured over time after the first dose on days 1 and 14 in healthy volunteers who received daily doses of Compound 1 (100 mg BID, 200 mg BID, 300 mg BID, or 400 mg QD) for 14 days. Accordingly, the median and mean reduction in the concentration of 2,3-DPG, relative to baseline, was at least about 25% at all dose levels tested 24 hours after administration of the first dose on day 1 and at least about 40% at all dose levels tested 24 hours after administration of the first dose on day 14.
The following procedures are employed for the analysis of ATP and 2,3-DPG in human whole blood K2EDTA using a protein precipitation extraction procedure and analysis by LC-MS/MS.
The following procedures are used for sample extraction prior to analysis via LC-MS/MS. 15.0 μL of the calibration standards, quality controls, matrix blanks, and samples are aliquoted into a 96-well plate. 50.0 μL of the internal standard spiking solution is added to all samples on the plate, with the exception of the matrix blank samples; 50.0 μL of water is added to the matrix blank samples. […]

CYP1A2 = assay: CYP mRNA induction in cultured human hepatocytes; type: in vitro ADME; details: donors AIH, EUJ, HC5-40 individually

O=C([C@H](CO)c1ccccc1)N1CC2=C(C1)CN(S(=O)(=O)c1cnc3c(c1)OCCO3)C2 (single isomer, unassigned) [Compound 1]
solubility [1]: 22 to 25 µg/mL (≈ 48.1 to 54.6 µM) | Grade 1 headache incidence ([2]; HS receiving 14 days): 28% | Grade 1 headache incidence ([2]; HS receiving a single dose): 4% | serious adverse events or AEs leading to withdrawal ([2]; HV SAD and MAD cohorts): No serious adverse events (SAEs) or AEs leading to withdrawal | maximum decrease in 2,3-DPG on Day 14 from baseline (median) (2,3-DPG blood levels; HV MAD cohorts): 55% | median and mean reduction of 2,3-DPG relative to baseline (2,3-DPG blood levels; HV MAD, all dose levels, 24 hours after first dose on day 1): at least 25% | median and mean reduction of 2,3-DPG relative to baseline (2,3-DPG blood levels; HV MAD, all dose levels, 24 hours after first dose on day 14): at least 40% | Mean maximum percent change from baseline in 2,3-DPG (2,3-DPG blood levels; HV MAD, N = 36): −56.3% | Mean maximum percent change from baseline in 2,3-DPG (2,3-DPG blood levels; HV SAD, N = 24): −46.8% | median and mean reduction of 2,3-DPG relative to baseline (2,3-DPG blood levels; HV, all single dose levels, 24 hours after dose): at least 30% | lag of maximum 2,3-DPG decrease behind maximum plasma concentration (2,3-DPG blood levels; HV, single 200-1000 mg dose): about 24 hours | Median percentage change in 2,3-DPG levels (2,3-DPG blood levels; HV, single dose 200 mg, 0 h after dose): 0.0% | Median percentage change in 2,3-DPG levels (2,3-DPG blood levels; HV, single dose 200 mg, 8 h after dose): −17% | Median percentage change in 2,3-DPG levels (2,3-DPG blood levels; HV, single dose 200 mg, 48 h after dose): −29% | Median percentage change in 2,3-DPG levels (2,3-DPG blood levels; HV, single dose 400 mg, 0 h after dose): 0.0% | Median percentage change in 2,3-DPG levels (2,3-DPG blood levels; HV, single dose 400 mg, 8 h after dose): −29% | Median percentage change in 2,3-DPG levels (2,3-DPG blood levels; HV, single dose 400 mg, 72 h after dose): −30% | Median percentage change in 2,3-DPG levels (2,3-DPG blood levels; HV, single dose 700 mg, 0 h after dose): 0.0% | Median percentage change in 2,3-DPG levels (2,3-DPG blood levels; HV, single dose 700 mg, 6 h after dose): −29% | Median percentage change in 2,3-DPG levels (2,3-DPG blood levels; HV, single dose 700 mg, 16 h after dose): −46% | Median percentage change in 2,3-DPG levels (2,3-DPG blood levels; HV, single dose 700 mg, 36 h after dose): −46% | Median percentage change in 2,3-DPG levels (2,3-DPG blood levels; HV, single dose 1000 mg, 36 h after dose): −47% | mRNA Fold Induction CYP1A2 (CYP1A2; 0.033 μM): 1.07 fold and 0.989 fold and 1.23 fold | mRNA Fold Induction CYP1A2 (CYP1A2; 0.1 μM): 0.942 fold and 0.958 fold and 1.05 fold | mRNA Fold Induction CYP1A2 (CYP1A2; 0.33 μM): 0.887 fold and 1.10 fold and 1.20 fold | mRNA Fold Induction CYP1A2 (CYP1A2; 1 μM): 0.911 fold and 1.20 fold and 1.14 fold | mRNA Fold Induction CYP1A2 (CYP1A2; 3.3 μM): 0.892 fold and 1.24 fold and 1.11 fold | mRNA Fold Induction CYP1A2 (CYP1A2; 10 μM): 1.02 fold and 1.33 fold and 1.25 fold
